The molecules below were run against T1, RORc ligand binding domain (Homo sapiens, UniProt P51449) (assay: In Vitro RORc Ligand Binding Assay (25-[3H]hydroxycholesterol radioligand filtration)). Settings: In Vitro RORc Ligand Binding Assay; Table 4; read-out: RORc IC50.
T1 construct: host or cells: E. coli
T1 sequence (P51449 269-508 limits assumed): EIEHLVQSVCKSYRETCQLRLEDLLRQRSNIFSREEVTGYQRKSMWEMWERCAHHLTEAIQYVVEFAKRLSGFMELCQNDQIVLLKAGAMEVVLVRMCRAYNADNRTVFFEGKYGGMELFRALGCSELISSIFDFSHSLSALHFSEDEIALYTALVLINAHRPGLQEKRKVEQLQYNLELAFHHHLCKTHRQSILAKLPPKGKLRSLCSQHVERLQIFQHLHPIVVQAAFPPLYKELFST
`CC(=O)N1CCN(c2ccc(CN3CCC(C)CC(c4ccccc4)S3(=O)=O)c(F)c2)CC1` (single isomer, unassigned) [Example 333, 1-{4-[3-Fluoro-4-(5-methyl-1,1-dioxo-7-phenyl-[1,2]thiazepan-2-ylmethyl)-phenyl]-piperazin-1-yl}-ethanone] gave an IC50 of 32 nM.
With `CC(=O)N1CCN(c2ccc(CN3CC(C)CCC(c4ccccc4)S3(=O)=O)c(F)c2)CC1` (single isomer, unassigned) [Example 334, 1-{4-[3-Fluoro-4-(4-methyl-1,1-dioxo-7-phenyl-[1,2]thiazepan-2-ylmethyl)-phenyl]-piperazin-1-yl}-ethanone] the IC50 was 5 nM.
In the case of `CC(=O)N1CCN(c2ccc(CN3CCCCC(c4ccccc4)S3(=O)=O)c(F)c2)[C@@H](C)C1` (single isomer, unassigned) [Example 335, 1-{4-[4-(1,1-Dioxo-7-phenyl-[1,2]thiazepan-2-ylmethyl)-3-fluoro-phenyl]-3-methyl-piperazin-1-yl}-ethanone], the IC50 is reported as 8 nM.
For `O=S1(=O)C(c2ccccc2)CCCCN1Cc1ccc(N2CCC(n3cnnc3)CC2)cc1` (single isomer, unassigned) [Example 336, 7-Phenyl-2-[4-(4-[1,2,4]triazol-4-yl-piperidin-1-yl)-benzyl]-[1,2]thiazepane 1,1-dioxide], the IC50 was 28 nM.
With `O=c1[nH]nc(C2CCN(c3ccc(CN4CCCCC(c5ccccc5)S4(=O)=O)cc3)CC2)o1` (single isomer, unassigned) [Example 337, 5-{1-[4-(1,1-Dioxo-7-phenyl-[1,2]thiazepan-2-ylmethyl)-phenyl]-piperidin-4-yl}-3H-[1,3,4]oxadiazol-2-one] the IC50 was 24 nM.
With `CC(=O)N1CCN(c2ccc(CN3CC(C)CCC(c4ccccc4)S3(=O)=O)c(F)c2)CC1` (single isomer, unassigned) [Example 338, 1-{4-[3-Fluoro-4-(4-methyl-1,1-dioxo-7-phenyl-[1,2]thiazepan-2-ylmethyl)-phenyl]-piperazin-1-yl}-ethanone] the IC50 was 12 nM.
Work on `CC(=O)N1CCN(c2ccc(CN3CC(C)CCC(c4ccccc4)S3(=O)=O)c(F)c2)CC1` (single isomer, unassigned) [Example 339, 1-{4-[3-Fluoro-4-(4-methyl-1,1-dioxo-7-phenyl-[1,2]thiazepan-2-ylmethyl)-phenyl]-piperazin-1-yl}-ethanone] yielded an IC50 of 15 nM.
In the case of `CC(=O)N1CCN(c2ccc(CN3CC(C)CCC(c4ccccc4)S3(=O)=O)c(F)c2)CC1` (single isomer, unassigned) [Example 340, 1-{4-[3-Fluoro-4-(4-methyl-1,1-dioxo-7-phenyl-[1,2]thiazepan-2-ylmethyl)-phenyl]-piperazin-1-yl}-ethanone], the IC50 is reported as 54 nM.
`CC(=O)N1CCN(c2ccc(CN3CCCCC(c4ccccc4)S3(=O)=O)c(F)c2)[C@@H](C)C1` (single isomer, unassigned) [Example 341, 1-{4-[4-(1,1-Dioxo-7-phenyl-[1,2]thiazepan-2-ylmethyl)-3-fluoro-phenyl]-3-methyl-piperazin-1-yl}-ethanone] was tested, and the IC50 was 26 nM.
Work on `O=S1(=O)C(c2ccccc2)CCCCN1Cc1ccc(N2CCC(n3cnnc3)CC2)cc1` (single isomer, unassigned) [Example 342, 7-Phenyl-2-[4-(4-[1,2,4]triazol-4-yl-piperidin-1-yl)-benzyl]-[1,2]thiazepane 1,1-dioxide] yielded an IC50 of 75 nM.
`O=c1[nH]nc(C2CCN(c3ccc(CN4CCCCC(c5ccccc5)S4(=O)=O)cc3)CC2)o1` (single isomer, unassigned) [Example 343, 5-{1-[4-(1,1-Dioxo-7-phenyl-[1,2]thiazepan-2-ylmethyl)-phenyl]-piperidin-4-yl}-3H-[1,3,4]oxadiazol-2-one] was tested, and the IC50 was 449 nM.
With `CC(=O)N1CCN(c2ccc(CN3CCCCC(c4ccccc4)S3(=O)=O)cc2F)CC1` (single isomer, unassigned) [Example 344, 1-{4-[4-(1,1-Dioxo-7-phenyl-[1,2]thiazepan-2-ylmethyl)-2-fluoro-phenyl]-piperazin-1-yl}-ethanone] the IC50 was 32 nM.
`CS(=O)(=O)N1CCC(Nc2ccc(CN3CCCCC(c4ccccc4)S3(=O)=O)c(F)c2)CC1` (single isomer, unassigned) [Example 345, [4-(1,1-Dioxo-7-phenyl-[1,2]thiazepan-2-ylmethyl)-3-fluoro-phenyl]-(1-methanesulfonyl-piperidin-4-yl)-amine] gave an IC50 of 8 nM.
In the case of `CC(=O)N1CCN(c2ccc(CN3CCCCC(c4ccccc4)S3(=O)=O)cc2F)CC1` (single isomer, unassigned) [Example 346, 1-{4-[4 (1,1-Dioxo-7-phenyl-[1,2]thiazepan-2-ylmethyl)-2-fluoro-phenyl]-piperazin-1-yl}-ethanone], the IC50 is reported as 50 nM.
With `CS(=O)(=O)N1CCC(Nc2ccc(CN3CCCCC(c4ccccc4)S3(=O)=O)c(F)c2)CC1` (single isomer, unassigned) [Example 347, [4-(1,1-Dioxo-7-phenyl-[1,2]thiazepan-2-ylmethyl)-3-fluoro-phenyl]-(1-methanesulfonyl-piperidin-4-yl)-amine] the IC50 was 5 nM.
`CC(=O)N1CCN(c2ccc(CN3CCC(c4ccc(F)cc4)S3(=O)=O)c(F)c2)CC1` (centres unmarked) [Example 9, 1-(4-{3-Fluoro-4-[5-(4-fluoro-phenyl)-1,1-dioxo-isothiazolidin-2-ylmethyl]-phenyl}-piperazin-1-yl)-ethanone] was tested, and the IC50 was 7600 nM.
`CC(=O)N1CCN(c2ccc(CN3CCCC(c4ccccc4)S3(=O)=O)c(F)c2)CC1` (centres unmarked) [Example 10, 1-{4-[4-(1,1-Dioxo-6-phenyl-[1,2]thiazinan-2-ylmethyl)-3-fluoro-phenyl]-piperazin-1-yl}-ethanone] gave an IC50 of 149 nM.
In the case of `CC(=O)N1CCN(c2ccc(CN3CCOCC(c4ccccc4)S3(=O)=O)c(F)c2)CC1` (centres unmarked) [Example 21, 1-{4-[4-(4,4-Dioxo-3-phenyl-[1,4,5]oxathiazepan-5-ylmethyl)-3-fluoro-phenyl]-piperazin-1-yl}-ethanone], the IC50 is reported as 209 nM.
`C[C@@H]1CCC(c2ccccc2)S(=O)(=O)N1Cc1ccc(OC2CCN(S(C)(=O)=O)CC2)cc1` (stereo partly drawn) [Example 52, (3R)-3-Methyl-2-(4-((1-(methylsulfonyl)piperidin-4-yl)oxy)benzyl)-6-phenyl-1,2-thiazinane 1,1-dioxide] showed an IC50 of 20 nM.
`C[C@@H]1CCC(c2ccccc2)S(=O)(=O)N1Cc1ccc(OC2CCN(S(C)(=O)=O)CC2)cc1F` (stereo partly drawn) [Example 53, 2-(2-fluoro-4-((1-(methylsulfonyl)piperidin-4-yl)oxy)benzyl)-(3R)-3-methyl-6-phenyl-1,2-thiazinane 1,1-dioxide] showed an IC50 of 6 nM.
In the case of `CC(=O)N1CCN(c2ccc(CN3[C@@H](C)CCC(c4ccccc4)S3(=O)=O)nc2)CC1` (stereo partly drawn) [Example 67, 1-{4-[6-((3S)-3-Methyl-1,1-dioxo-6-phenyl-[1,2]thiazinan-2-ylmethyl)-pyridin-3-yl]-piperazin-1-yl}-ethanone], the IC50 is reported as 1540 nM.
Molecule `C[C@H]1CCC(c2ccccc2)S(=O)(=O)N1Cc1ccc(NC2CCC(C#N)CC2)cc1F` (stereo partly drawn) [Example 101, 4-[3-Fluoro-4-((3S)-3-methyl-1,1-dioxo-6-phenyl-[1,2]thiazinan-2-ylmethyl)-phenylamino]-cyclohexanecarbo-nitrile] has an IC50 of 18 nM.
For `C[C@H]1CCC(c2ccccc2)S(=O)(=O)N1Cc1ccc(N2CCN(C=O)CC2)cc1F` (stereo partly drawn) [Example 115, 4-[3-Fluoro-4-((3S)-3-methyl-1,1-dioxo-6-phenyl-[1,2]thiazinan-2-ylmethyl)-phenyl]-piperazine-1-carbaldehyde], the IC50 was 73 nM.
With `C[C@H]1CCC(c2ccccc2)S(=O)(=O)N1Cc1ccc(N2CCC(C(=O)O)CC2)cc1F` (stereo partly drawn) [Example 120, 1-[3-Fluoro-4-((3S)-3-methyl-1,1-dioxo-6-phenyl-[1,2]thiazinan-2-ylmethyl)-phenyl]-piperidine-4-carboxylic acid] the IC50 was 102 nM.

Same assay, conditions: read-out: RORc IC50
Work on `C[C@H]1CCC(c2ccccc2)S(=O)(=O)N1Cc1ccc(C(=O)NC2CCC(O)C2)cc1` (single isomer, unassigned) [Example 408] yielded an IC50 of 3520 nM.
`C[C@H]1CCC(c2ccccc2)S(=O)(=O)N1Cc1ccc(C(=O)NC2CCC(O)C2)cc1` (single isomer, unassigned) [Example 409] gave an IC50 of 1880 nM.
For `C[C@H]1CCC(c2ccccc2)S(=O)(=O)N1Cc1ccc(C(=O)NC2CCC(O)C2)cc1` (single isomer, unassigned) [Example 410], the IC50 was 6500 nM.
Work on `C[C@H]1CCC(c2ccccc2)S(=O)(=O)N1Cc1ccc(C(=O)NC2CCC(O)C2)cc1` (single isomer, unassigned) [Example 411] yielded an IC50 of 3520 nM.
Molecule `C[C@H]1CCC(c2ccccc2)S(=O)(=O)N1Cc1ccc(N2CCC(C)(n3cnnc3)CC2)cc1F` (single isomer, unassigned) [Example 412] has an IC50 of 585 nM.
For `C[C@H]1CCC(c2ccccc2)S(=O)(=O)N1Cc1ccc(N2CCC(C)(n3cnnc3)CC2)cc1F` (single isomer, unassigned) [Example 413], the IC50 was 32 nM.
`C[C@H]1CCC(c2ccccc2)S(=O)(=O)N1Cc1ccc(N2CCN3C(=O)OCC3C2)cc1F` (single isomer, unassigned) [Example 418] was tested, and the IC50 was 129 nM.
Work on `C[C@H]1CCC(c2ccccc2)S(=O)(=O)N1Cc1ccc(N2CCN3C(=O)OCC3C2)cc1F` (single isomer, unassigned) [Example 420] yielded an IC50 of 28 nM.
`C[C@H]1CCC(c2ccccc2)S(=O)(=O)N1Cc1ccc(N2CC(n3cnnc3)C2)cc1F` (single isomer, unassigned) [Example 429] showed an IC50 of 316 nM.
`C[C@H]1CCC(c2ccccc2)S(=O)(=O)N1Cc1ccc(OC[C@H]2CCC(=O)N2)cc1` (single isomer, unassigned) [Example 450] was tested, and the IC50 was 1050 nM.
`C[C@H]1CCC(c2ccccc2)S(=O)(=O)N1Cc1ccc(OC[C@@H]2CCC(=O)N2)cc1` (single isomer, unassigned) [Example 454] was tested, and the IC50 was 620 nM.

Source: patent publication US9115101B2 (Genentech, Inc., priority 2012, dated 2015)
